Results: the NIST ThermoML archive (doi:10.1021/acs.jced.5b01043)
Numbers after ± are expanded uncertainties.

What was measured:
[1] = wn = mass fraction of the nth substance listed; conditions: 100 kPa, Liquid, Vibrating tube method
[2] = refractive index (Na D-line) (dimensionless); wn = mass fraction of the nth substance listed; conditions: 100 kPa, Liquid, Standard Abbe refractometry

CCN(C=O)CC [N,N-diethylformamide] + O
298.15 K
Conditions	mass density, [1] [kg/m3]	refractive index, [2]
w1 = 0.009925	996.45 ± 0.11	1.33379 ± 0.00031
w1 = 0.04	995.04 ± 0.11	1.33758 ± 0.00031
w1 = 0.06998	993.7 ± 0.11	1.34136 ± 0.00032
w1 = 0.09919	992.49 ± 0.12	1.34512 ± 0.00032
w1 = 0.129	991.3 ± 0.12	1.34898 ± 0.00032
w1 = 0.16	989.97 ± 0.12	1.35302 ± 0.00032
w1 = 0.1897	988.8 ± 0.12	1.35684 ± 0.00032

CCN(C=O)CC [N,N-diethylformamide] + [Cl-].[Cs+]
288.15 K, w2 = 0.0013
Conditions	mass density [kg/m3]	refractive index
[1]	910.38 ± 0.26	–
[2]	–	1.43686 ± 0.00037

CCN(C=O)CC [N,N-diethylformamide] + [Cl-].[K+]
Conditions	mass density, [1] [kg/m3]	refractive index, [2]
288.15 K, w2 = 0.0015	911.47 ± 0.27	1.43618 ± 0.00037
298.15 K, w2 = 0.0009	903.51 ± 0.25	1.43281 ± 0.00037
308.15 K, w2 = 0.0005	896.68 ± 0.24	1.42872 ± 0.00037

CCN(C=O)CC [N,N-diethylformamide] + [Cl-].[Na+]
Conditions	mass density, [1] [kg/m3]	refractive index, [2]
288.15 K, w2 = 0.0013	912.57 ± 0.26	1.43642 ± 0.00037
298.15 K, w2 = 0.0009	904.23 ± 0.25	1.43203 ± 0.00037
308.15 K, w2 = 0.0005	896.38 ± 0.24	1.42776 ± 0.00037

CCN(C=O)CC [N,N-diethylformamide] + [Cl-].[Rb+]
Conditions	mass density, [1] [kg/m3]	refractive index, [2]
288.15 K, w2 = 0.0016	910.95 ± 0.28	1.43675 ± 0.00037
298.15 K, w2 = 0.0011	902.43 ± 0.25	1.43253 ± 0.00037
308.15 K, w2 = 0.0008	894.54 ± 0.25	1.42819 ± 0.00037

[Cl-].[Cs+] [cesium chloride] + O
288.15 K, w1 = 0.6406
Conditions	mass density [kg/m3]	refractive index
[1]	1893.82 ± 1.2	–
[2]	–	1.41772 ± 0.00032

[Cl-].[K+] [potassium chloride] + O
Conditions	mass density, [1] [kg/m3]	refractive index, [2]
288.15 K, w1 = 0.2483	1169.18 ± 0.67	1.36809 ± 0.00032
298.15 K, w1 = 0.2668	1174.11 ± 0.68	1.36838 ± 0.00032
308.15 K, w1 = 0.2768	1184.11 ± 0.68	1.36932 ± 0.00032

[Cl-].[Rb+] [rubidium chloride] + O
Conditions	mass density, [1] [kg/m3]	refractive index, [2]
288.15 K, w1 = 0.4652	1482.6 ± 0.87	1.38751 ± 0.00032
298.15 K, w1 = 0.4823	1495.24 ± 0.88	1.38769 ± 0.00032
308.15 K, w1 = 0.5033	1520.16 ± 0.9	1.38939 ± 0.00032

[Cl-].[Na+] [sodium chloride] + O
Conditions	mass density, [1] [kg/m3]	refractive index, [2]
288.15 K, w1 = 0.2631	1202.37 ± 0.69	1.381 ± 0.00032
298.15 K, w1 = 0.265	1197.1 ± 0.69	1.37938 ± 0.00031
308.15 K, w1 = 0.2666	1193.13 ± 0.69	1.37784 ± 0.00032
